Structures are written as SMILES.

The results in this text go back to paper PMC5298233, “Substrate-analogous inhibitors exert antimalarial action by targeting the Plasmodium lactate transporter PfFNT at nanomolar scale” (PLoS Pathogens, 2017).

The target in the experiment is PfFNT G107S (Plasmodium falciparum, UniProt O77389, G107S). The experiment is described as follows: cell-based. The following applies: for IC50: read-out: IC50 (PfFNT G107S / yeast).

`COc1ccc2c(c1)OC(O)(C(F)(F)C(F)(F)F)CC2=O` (stereo not shown) [MMV007839]: the IC50 stood at 21 µM.

Consider `COc1ccc(C(=O)/C=C(\O)C(F)(F)C(F)(F)F)cc1` [BH-296], for which the IC50 amounted to 2.3 µM.

For `CC(=O)C=C(O)C(F)(F)C(F)(F)F` [Pharmacophore, 5,5,6,6,6-pentafluoro-4-hydroxyhex-3-en-2-one], the IC50 turned out to be 8.1 µM. Further, the “relative efficiency in blocking PfFNT G107S (mutant versus wildtype)” value (compared with BH-296) was “four times better relative efficiency than BH-296”.
